Reference: patent US6846802B2, “Macrocyclic NS3-serine protease inhibitors of hepatitis C virus comprising N-cyclic P2 moieties” (priority 2000, dated 2005)
Starred links: 1 amine or outer side, 2 acyl side, 3 side chain; linkers in the order of their positions; H or OH if unused. Positions of bridges follow the written chain, without caps; N, C: chain ends. Non-standard residues stand in square brackets, D forms with d. Residues, ends and D or L forms follow the SMILES beside them. Tic(7-O(CH2)6CO) = O=C([C@@H]1Cc2ccc(OCCCCCCC(=O)[*:3])cc2CN1[*:1])[*:2]; X1 = CCC[C@H](N[*:1])C(=O)C(=O)[*:2]; Chg = N[C@H](C(=O)O)C1CCCCC1; Phg = N[C@H](C(=O)O)c1ccccc1

target: HCV serine protease (subtype 1b, 1bNS4A21-32GS-GS NS3-81 I17K) in HeLa/Huh7 cells (Hepatitis C virus genotype 1b, UniProt P26663, I1043K); assay type: cell-based

Structure (SMILES)	Cell-Based Assay
CCCC(NC(=O)[C@@H]1C[C@@H]2CN1C(=O)[C@H](C1CCCCC1)NC(=O)Cc1cccc(c1)OCCCCO2)C(=O)C(=O)NCC(=O)N[C@H](C(=O)OC(C)(C)C)c1ccccc1 (mixture of isomers) [Compound 5]	0.6 µM
CCCC(NC(=O)[C@@H]1C[C@@H]2CN1C(=O)[C@H](C1CCCCC1)NC(=O)Cc1cccc(c1)OCCO2)C(=O)C(=O)NCC(=O)N[C@H](C(=O)OC(C)(C)C)c1ccccc1 (mixture of isomers) [Compound 8]	3.5 µM
CCCC(NC(=O)[C@@H]1Cc2ccc3cc2CN1C(=O)[C@H](C1CCCCC1)NC(=O)CCCCCCO3)C(=O)C(=O)NCC(=O)N[C@H](C(=O)OC(C)(C)C)c1ccccc1 (mixture of isomers) [Compound 58]	2 µM
CCCC(NC(=O)[C@@H]1C[C@@H]2CN1C(=O)[C@H](C1CCCCC1)NC(=O)Cc1cccc(c1)OCCCO2)C(=O)C(=O)NCC(=O)N[C@H](C(=O)OC(C)(C)C)c1ccccc1 (stereo partly shown) [Compound 2]	2 µM
CCC[C@@H](NC(=O)[C@@H]1C[C@@H]2CN1C(=O)[C@H](C1CCCCC1)NC(=O)Cc1cccc(c1)OCCCCO2)C(=O)C(=O)NCC(=O)N[C@H](C(=O)N(C)C)c1ccccc1 [Compound 4A]	2.5 µM
CCC[C@H](NC(=O)[C@@H]1C[C@@H]2CN1C(=O)[C@H](C1CCCCC1)NC(=O)Cc1cccc(c1)OCCCCO2)C(=O)C(=O)NCC(=O)N[C@H](C(=O)N(C)C)c1ccccc1 [Compound 4B]	1.8 µM
CCC[C@H](NC(=O)[C@@H]1C[C@@H]2CN1C(=O)[C@H](C(C)(C)C)NC(=O)Cc1cccc(c1)OCCCO2)C(=O)C(=O)NCC(=O)N[C@H](C(=O)N(C)C)c1ccccc1 [Compound 12B]	5.2 µM
CCCC(NC(=O)[C@@H]1C[C@@H]2CN1C(=O)[C@H](C1CCCCC1)NC(=O)CCc1cccc(c1)OCCO2)C(=O)C(=O)NCC(=O)N[C@H](C(=O)OC(C)(C)C)c1ccccc1 (stereo partly shown) [Compound 21]	2 µM
CCCC(NC(=O)[C@@H]1C[C@@H]2CN1C(=O)[C@H](C1CCCCC1)NC(=O)Cc1cccc(c1)OCCCO2)C(=O)C(=O)NCC(=O)OCc1ccccc1 (stereo partly shown) [Compound 23]	3 µM
CCC[C@H](NC(=O)[C@@H]1Cc2ccc3cc2CN1C(=O)[C@H](C1CCCCC1)NC(=O)CCCCCCO3)C(=O)C(=O)NCC(=O)N[C@H](C(=O)N(C)C)c1ccccc1 [Compound 57B] ([Chg][Tic(7-O(CH2)6CO)][X1]G[Phg]-NMe2; lactam N-2)	1.5 µM
